One may read the inhibition as the drop in the measured response relative to a control, in per cent.

In assay [1] the target is Dual specificity mitogen-activated protein kinase kinase 2 (Homo sapiens) (UniProt P36507). The assay can be described thus: Inhibition of human MEK2 at 18.6 nM by HotSpot assay relative to control.
The target of assay [2] is T1, Ephrin type-B receptor 3 (Homo sapiens) (UniProt P54753).
T1 sequence (whole entry): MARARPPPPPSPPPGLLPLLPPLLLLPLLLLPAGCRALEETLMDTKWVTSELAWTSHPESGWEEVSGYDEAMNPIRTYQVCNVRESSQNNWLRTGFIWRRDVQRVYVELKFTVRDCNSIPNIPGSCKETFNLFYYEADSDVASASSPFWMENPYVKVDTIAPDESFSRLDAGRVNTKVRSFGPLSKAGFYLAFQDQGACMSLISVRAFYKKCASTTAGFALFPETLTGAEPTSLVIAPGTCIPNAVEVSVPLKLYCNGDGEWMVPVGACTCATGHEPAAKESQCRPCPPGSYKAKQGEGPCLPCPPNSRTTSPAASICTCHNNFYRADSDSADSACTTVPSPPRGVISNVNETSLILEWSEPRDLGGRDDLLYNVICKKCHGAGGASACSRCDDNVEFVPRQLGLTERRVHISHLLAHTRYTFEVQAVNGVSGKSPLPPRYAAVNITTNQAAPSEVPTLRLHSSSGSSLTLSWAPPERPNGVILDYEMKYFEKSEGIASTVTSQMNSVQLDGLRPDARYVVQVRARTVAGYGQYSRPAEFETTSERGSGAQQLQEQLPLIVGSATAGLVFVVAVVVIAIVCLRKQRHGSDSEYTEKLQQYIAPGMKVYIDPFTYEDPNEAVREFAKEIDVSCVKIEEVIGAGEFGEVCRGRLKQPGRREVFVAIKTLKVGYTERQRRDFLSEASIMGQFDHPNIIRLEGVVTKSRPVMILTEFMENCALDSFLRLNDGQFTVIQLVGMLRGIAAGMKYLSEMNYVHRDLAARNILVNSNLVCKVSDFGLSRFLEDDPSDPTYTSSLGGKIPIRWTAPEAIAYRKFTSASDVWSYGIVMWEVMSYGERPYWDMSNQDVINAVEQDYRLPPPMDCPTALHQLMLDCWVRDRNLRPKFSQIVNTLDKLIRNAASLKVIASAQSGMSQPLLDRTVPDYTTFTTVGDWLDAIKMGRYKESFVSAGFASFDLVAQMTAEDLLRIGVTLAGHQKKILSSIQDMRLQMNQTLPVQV
The assay can be described thus: Inhibition of human EPHB3 at 18.6 nM by HotSpot assay relative to control.

The target of assay [3] is Ephrin type-A receptor 2 (Homo sapiens) (UniProt P29317). The assay is described as follows: Inhibition of human EPHA2 at 18.6 nM by HotSpot assay relative to control.
Sequence of Ephrin type-A receptor 2 (Homo sapiens) (P29317 whole entry): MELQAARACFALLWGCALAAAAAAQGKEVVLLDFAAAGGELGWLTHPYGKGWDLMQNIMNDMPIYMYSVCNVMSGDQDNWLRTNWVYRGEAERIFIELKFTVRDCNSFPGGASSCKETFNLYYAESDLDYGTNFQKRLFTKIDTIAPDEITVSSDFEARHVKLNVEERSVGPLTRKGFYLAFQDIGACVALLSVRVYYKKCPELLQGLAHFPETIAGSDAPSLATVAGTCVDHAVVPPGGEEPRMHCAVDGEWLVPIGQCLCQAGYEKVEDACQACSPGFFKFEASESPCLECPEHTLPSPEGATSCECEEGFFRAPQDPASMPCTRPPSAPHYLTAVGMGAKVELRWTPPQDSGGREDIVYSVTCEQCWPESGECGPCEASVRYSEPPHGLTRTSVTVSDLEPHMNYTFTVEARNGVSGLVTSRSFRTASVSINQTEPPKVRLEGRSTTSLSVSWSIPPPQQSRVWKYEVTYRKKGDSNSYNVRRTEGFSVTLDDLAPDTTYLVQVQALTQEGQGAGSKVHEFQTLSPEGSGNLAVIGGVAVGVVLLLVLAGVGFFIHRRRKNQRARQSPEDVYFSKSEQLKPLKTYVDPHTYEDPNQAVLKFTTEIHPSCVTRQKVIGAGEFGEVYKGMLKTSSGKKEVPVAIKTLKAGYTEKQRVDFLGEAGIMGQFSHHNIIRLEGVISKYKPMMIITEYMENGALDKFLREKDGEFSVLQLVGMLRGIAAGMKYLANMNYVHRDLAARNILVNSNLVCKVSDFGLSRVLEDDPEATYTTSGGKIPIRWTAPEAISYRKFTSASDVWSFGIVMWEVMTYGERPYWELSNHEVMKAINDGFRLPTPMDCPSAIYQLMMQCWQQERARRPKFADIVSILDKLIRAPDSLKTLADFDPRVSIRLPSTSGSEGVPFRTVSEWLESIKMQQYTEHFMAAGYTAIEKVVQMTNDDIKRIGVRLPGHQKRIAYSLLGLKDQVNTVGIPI
The target in assay [4] is STE20-like serine/threonine-protein kinase (Homo sapiens) (UniProt Q9H2G2). The assay is described as follows: Inhibition of human STK2 at 18.6 nM by HotSpot assay relative to control.
Sequence of STE20-like serine/threonine-protein kinase (Homo sapiens) (Q9H2G2 whole entry, looked up): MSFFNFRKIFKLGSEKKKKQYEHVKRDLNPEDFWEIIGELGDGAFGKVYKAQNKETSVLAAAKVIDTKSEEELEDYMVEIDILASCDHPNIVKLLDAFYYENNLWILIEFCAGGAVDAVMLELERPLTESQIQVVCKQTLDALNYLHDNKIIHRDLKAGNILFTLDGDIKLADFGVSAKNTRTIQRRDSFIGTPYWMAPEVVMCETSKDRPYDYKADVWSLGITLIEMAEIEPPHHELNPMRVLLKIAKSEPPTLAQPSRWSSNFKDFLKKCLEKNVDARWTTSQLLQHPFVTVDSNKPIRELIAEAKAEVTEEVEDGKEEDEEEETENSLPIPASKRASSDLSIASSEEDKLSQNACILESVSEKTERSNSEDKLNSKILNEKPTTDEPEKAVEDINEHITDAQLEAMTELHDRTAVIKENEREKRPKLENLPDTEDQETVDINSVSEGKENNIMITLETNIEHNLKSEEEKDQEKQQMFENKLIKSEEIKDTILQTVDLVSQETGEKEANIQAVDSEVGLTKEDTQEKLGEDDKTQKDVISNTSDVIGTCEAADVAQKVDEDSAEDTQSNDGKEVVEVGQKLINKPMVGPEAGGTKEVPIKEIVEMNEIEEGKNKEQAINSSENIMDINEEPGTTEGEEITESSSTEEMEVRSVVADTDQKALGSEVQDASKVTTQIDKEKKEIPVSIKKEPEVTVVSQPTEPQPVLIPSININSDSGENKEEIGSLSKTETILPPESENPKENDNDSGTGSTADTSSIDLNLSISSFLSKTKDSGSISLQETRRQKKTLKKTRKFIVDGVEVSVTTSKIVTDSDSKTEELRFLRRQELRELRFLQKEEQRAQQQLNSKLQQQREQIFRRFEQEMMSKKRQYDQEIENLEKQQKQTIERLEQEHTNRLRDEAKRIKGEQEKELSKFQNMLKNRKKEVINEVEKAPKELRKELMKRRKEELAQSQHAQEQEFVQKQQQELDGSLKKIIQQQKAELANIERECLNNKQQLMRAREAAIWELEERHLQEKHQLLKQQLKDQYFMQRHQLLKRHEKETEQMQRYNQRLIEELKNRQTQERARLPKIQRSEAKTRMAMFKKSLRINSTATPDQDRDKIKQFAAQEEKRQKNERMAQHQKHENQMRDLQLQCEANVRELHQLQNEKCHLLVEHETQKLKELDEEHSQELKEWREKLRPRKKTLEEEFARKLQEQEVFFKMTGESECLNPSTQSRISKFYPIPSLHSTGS
Assay [5] has as its target Cyclin-dependent kinase 5/CDK5 activator 1 (Homo sapiens) (UniProt Q00535+Q15078). The assay is described as follows: Inhibition of human CDK5/p35 at 18.6 nM by HotSpot assay relative to control. It counts as protein-complex assay.
Assay [6] deals with RAC-beta serine/threonine-protein kinase (Homo sapiens) (UniProt P31751). The assay is described as follows: Inhibition of human AKT2 at 18.6 nM by HotSpot assay relative to control.
Sequence of RAC-beta serine/threonine-protein kinase (Homo sapiens) (P31751 whole entry): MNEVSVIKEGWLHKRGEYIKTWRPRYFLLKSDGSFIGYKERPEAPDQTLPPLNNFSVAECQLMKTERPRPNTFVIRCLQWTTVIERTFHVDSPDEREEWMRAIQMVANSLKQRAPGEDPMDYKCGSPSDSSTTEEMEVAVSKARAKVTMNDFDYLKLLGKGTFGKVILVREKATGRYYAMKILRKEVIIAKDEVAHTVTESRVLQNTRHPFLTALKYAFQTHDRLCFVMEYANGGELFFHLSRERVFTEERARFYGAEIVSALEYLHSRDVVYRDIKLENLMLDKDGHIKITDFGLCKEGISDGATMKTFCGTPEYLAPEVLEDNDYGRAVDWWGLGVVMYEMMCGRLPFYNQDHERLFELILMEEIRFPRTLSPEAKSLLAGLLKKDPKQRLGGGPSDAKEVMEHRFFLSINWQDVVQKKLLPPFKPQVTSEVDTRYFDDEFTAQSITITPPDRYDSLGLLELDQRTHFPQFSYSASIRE
Assay [7] has as its target Protein kinase C beta type (Homo sapiens) (UniProt P05771). The assay can be described thus: Inhibition of human PKCb1 at 500 nM by HotSpot assay relative to control.
Assay [8] concerns the target T2, Mitogen-activated protein kinase 12 (Homo sapiens) (UniProt P53778).
T2 sequence (whole entry): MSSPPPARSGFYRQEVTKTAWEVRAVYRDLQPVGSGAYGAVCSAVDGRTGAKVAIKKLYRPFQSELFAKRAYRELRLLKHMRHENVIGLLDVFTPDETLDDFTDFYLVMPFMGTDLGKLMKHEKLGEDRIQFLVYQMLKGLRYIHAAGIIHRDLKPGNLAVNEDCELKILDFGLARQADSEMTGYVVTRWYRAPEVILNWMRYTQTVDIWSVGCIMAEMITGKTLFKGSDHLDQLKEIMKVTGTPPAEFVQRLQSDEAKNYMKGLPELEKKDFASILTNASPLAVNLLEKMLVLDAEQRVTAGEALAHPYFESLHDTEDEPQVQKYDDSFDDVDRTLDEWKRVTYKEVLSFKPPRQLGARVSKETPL
The assay can be described thus: Inhibition of human P38g at 1.82 nM by HotSpot assay relative to control.

Assay [9] addresses Mitogen-activated protein kinase kinase kinase 7 (Homo sapiens) (UniProt O43318). Particulars: dose 1.82 nM.
Description: Inhibition of human TAK1 at 1.82 nM by HotSpot assay relative to control
The target in assay [10] is Protein kinase C alpha type (Homo sapiens) (UniProt P17252). The assay can be described thus: Inhibition of human PKCa at 1.82 nM by HotSpot assay relative to control.
Assay [11] deals with T3, Serine/threonine-protein kinase Sgk3 (Homo sapiens) (UniProt Q96BR1).
T3 sequence (whole entry): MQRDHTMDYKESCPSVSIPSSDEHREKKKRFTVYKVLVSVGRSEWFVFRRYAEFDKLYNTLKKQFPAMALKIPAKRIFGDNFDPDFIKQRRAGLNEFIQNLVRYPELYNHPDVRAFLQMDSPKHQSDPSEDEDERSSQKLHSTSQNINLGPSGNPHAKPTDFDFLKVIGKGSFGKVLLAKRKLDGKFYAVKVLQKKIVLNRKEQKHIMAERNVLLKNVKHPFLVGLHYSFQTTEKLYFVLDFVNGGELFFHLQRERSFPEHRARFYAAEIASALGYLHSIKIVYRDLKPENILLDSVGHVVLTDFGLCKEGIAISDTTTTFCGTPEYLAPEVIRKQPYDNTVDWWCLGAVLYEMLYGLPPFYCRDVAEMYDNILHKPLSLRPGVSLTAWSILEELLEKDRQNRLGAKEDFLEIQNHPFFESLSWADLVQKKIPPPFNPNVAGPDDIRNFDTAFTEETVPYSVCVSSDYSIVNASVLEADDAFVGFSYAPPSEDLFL
The assay can be described thus: Inhibition of human SGKL at 1.82 nM by HotSpot assay relative to control.

Assay [12] deals with T4, Phosphorylase b kinase gamma catalytic chain, liver/testis isoform (Homo sapiens) (UniProt P15735).
T4 sequence (whole entry): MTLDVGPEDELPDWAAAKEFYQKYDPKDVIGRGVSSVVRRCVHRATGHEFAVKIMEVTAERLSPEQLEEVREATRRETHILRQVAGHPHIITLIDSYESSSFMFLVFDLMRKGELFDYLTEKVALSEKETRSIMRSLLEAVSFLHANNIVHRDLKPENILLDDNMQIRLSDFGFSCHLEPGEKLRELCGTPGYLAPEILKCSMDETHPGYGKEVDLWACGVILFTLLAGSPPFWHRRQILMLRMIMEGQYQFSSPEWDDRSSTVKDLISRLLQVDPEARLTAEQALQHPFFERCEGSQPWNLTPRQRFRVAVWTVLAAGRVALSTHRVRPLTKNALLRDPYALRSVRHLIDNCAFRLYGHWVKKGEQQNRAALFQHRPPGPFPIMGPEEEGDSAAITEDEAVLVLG
The assay can be described thus: Inhibition of human PHKg2 at 1.82 nM by HotSpot assay relative to control.

Each structure is given as a SMILES string.

Sequence of Cyclin-dependent kinase 5/CDK5 activator 1 (Homo sapiens) (Q00535 whole entry): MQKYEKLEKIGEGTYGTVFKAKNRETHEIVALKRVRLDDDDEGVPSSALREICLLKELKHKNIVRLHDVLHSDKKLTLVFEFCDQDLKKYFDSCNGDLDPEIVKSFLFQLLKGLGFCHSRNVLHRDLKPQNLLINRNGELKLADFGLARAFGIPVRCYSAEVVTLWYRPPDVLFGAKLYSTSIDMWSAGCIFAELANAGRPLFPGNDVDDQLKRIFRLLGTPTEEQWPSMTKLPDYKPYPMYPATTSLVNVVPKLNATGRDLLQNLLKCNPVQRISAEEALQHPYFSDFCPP
Sequence of Cyclin-dependent kinase 5/CDK5 activator 1 (Homo sapiens) (Q15078 99-307 partner limits assumed): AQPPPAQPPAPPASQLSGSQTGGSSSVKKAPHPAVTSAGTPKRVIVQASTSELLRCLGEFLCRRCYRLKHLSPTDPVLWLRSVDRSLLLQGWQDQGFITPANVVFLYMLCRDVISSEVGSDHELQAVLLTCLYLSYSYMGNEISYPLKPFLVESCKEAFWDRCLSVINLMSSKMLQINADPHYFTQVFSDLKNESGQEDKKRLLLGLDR
Sequence of Mitogen-activated protein kinase kinase kinase 7 (Homo sapiens) (O43318 whole entry, looked up): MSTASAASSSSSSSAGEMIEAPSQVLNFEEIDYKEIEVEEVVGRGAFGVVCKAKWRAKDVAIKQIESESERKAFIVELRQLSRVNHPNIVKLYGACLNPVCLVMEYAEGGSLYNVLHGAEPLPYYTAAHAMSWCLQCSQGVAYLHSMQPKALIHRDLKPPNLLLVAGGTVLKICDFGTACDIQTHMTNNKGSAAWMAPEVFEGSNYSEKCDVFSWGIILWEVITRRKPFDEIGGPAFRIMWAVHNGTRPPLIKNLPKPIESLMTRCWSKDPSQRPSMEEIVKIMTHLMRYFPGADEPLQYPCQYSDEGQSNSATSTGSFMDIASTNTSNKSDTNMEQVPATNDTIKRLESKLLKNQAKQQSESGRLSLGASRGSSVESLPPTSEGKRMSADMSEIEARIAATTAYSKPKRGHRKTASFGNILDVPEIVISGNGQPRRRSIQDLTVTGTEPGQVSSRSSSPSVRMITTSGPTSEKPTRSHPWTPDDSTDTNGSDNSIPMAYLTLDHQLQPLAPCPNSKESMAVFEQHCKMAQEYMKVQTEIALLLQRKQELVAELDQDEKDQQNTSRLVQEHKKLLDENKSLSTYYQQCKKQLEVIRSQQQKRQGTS
Sequence of Protein kinase C beta type (Homo sapiens) (P05771 2-671 limits assumed): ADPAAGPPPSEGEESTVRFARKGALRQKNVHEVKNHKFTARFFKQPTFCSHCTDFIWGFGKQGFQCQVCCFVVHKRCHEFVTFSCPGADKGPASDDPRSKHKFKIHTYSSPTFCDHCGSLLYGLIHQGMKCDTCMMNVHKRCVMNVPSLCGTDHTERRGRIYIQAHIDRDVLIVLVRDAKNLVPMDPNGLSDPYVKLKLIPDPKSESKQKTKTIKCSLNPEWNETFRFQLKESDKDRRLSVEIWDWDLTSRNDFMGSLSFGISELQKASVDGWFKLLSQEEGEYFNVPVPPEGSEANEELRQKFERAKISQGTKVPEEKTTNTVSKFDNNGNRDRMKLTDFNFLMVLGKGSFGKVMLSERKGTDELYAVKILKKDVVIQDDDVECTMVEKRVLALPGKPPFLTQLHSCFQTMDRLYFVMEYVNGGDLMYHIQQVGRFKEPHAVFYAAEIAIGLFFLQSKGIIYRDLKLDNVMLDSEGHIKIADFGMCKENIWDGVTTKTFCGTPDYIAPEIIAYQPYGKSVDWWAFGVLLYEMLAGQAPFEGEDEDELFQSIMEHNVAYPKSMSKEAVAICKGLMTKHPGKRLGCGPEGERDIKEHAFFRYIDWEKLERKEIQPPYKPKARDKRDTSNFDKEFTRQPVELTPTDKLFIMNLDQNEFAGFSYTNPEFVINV
Sequence of Dual specificity mitogen-activated protein kinase kinase 2 (Homo sapiens) (P36507 whole entry): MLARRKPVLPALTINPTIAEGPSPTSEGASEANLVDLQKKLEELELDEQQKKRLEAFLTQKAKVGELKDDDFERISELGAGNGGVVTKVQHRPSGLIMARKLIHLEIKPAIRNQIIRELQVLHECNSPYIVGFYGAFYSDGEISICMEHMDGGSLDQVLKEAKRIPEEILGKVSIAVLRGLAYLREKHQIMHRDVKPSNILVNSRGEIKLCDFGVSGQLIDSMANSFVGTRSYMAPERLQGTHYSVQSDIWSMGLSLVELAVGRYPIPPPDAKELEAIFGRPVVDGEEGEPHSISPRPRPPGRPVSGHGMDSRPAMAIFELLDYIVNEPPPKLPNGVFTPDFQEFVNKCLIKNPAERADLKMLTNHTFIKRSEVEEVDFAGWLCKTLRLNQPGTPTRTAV

For `C[C@]1(O)C[C@@H](c2nc(-c3ccc4ccc(-c5ccccc5)nc4c3)c3c(N)nccn32)C1`, the inhibition in assay [1] is -5.1%; in assay [2], -2.53%; in [3] it was 2.9%; in [4], 9.03%; in [5] it was -1.84%; in [6], 0.3%.

With `Nc1n[nH]c2nnc(-c3c(-c4ccccc4)nn4ccccc34)cc12`, the inhibition in assay [7] turned out to be 3.54%.

For `C[C@@]1(C(=O)Nc2ccc(F)nc2)CCCN1c1nc(Nc2cc(C3CC3)n[nH]2)c2cccn2n1`, the inhibition was -4.67% in [8]; 3.35% in [9]; -5.95% in [10]; -2.25% in assay [11]; -4.64% in [12].

For the origin of these results see ChEMBL document CHEMBL5653615 (J Biol Chem, 2013).
